Assay results taken from PubChem BioAssay (NCI).
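Five concentrations, 48 hours, 96-well plates. At the GI50, growth is halved. The concentration for full growth arrest is given as TGI.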

Legend:
Experiment in all cases: NCI anticancer screen, dose series, 48 h; in the data active means GI50 below about 0.43 µM; inactive means the rest
[1] = tested on: 786-0 renal
[2] = tested on: A498 renal
[3] = tested on: A549 NSCLC
[4] = tested on: ACHN renal
[5] = tested on: BT-549 breast
[6] = tested on: CAKI-1 renal
[7] = tested on: CCRF-CEM leukemia
[8] = tested on: COLO 205 colon
[9] = tested on: DU-145 prostate
[10] = tested on: EKVX NSCLC
[11] = tested on: HCC-2998 colon
[12] = tested on: HCT-116 colon
[13] = tested on: HCT-15 colon
[14] = tested on: HL-60(TB) leukemia
[15] = tested on: HOP-62 NSCLC
[16] = tested on: HOP-92 NSCLC
[17] = tested on: HS 578T breast
[18] = tested on: HT29 colon
[19] = tested on: IGROV1 ovarian
[20] = tested on: K-562 leukemia
[21] = tested on: KM12 colon
[22] = tested on: LOX IMVI melanoma
[23] = tested on: M14 melanoma
[24] = tested on: MALME-3M melanoma
[25] = tested on: MCF7 breast
[26] = tested on: MDA-MB-231 breast
[27] = tested on: MDA-MB-435
[28] = tested on: MOLT-4 leukemia
[29] = tested on: NCI-H226 lung
[30] = tested on: NCI-H23 lung
[31] = tested on: NCI-H460 lung
[32] = tested on: NCI-H522 lung
[33] = tested on: NCI/ADR-RES ovarian
[34] = tested on: OVCAR-3 ovarian
[35] = tested on: OVCAR-4 ovarian
[36] = tested on: OVCAR-5 ovarian
[37] = tested on: OVCAR-8 ovarian
[38] = tested on: PC-3 prostate
[39] = tested on: RPMI-8226 leukemia
[40] = tested on: RXF 393 renal
[41] = tested on: SF-268 CNS
[42] = tested on: SF-295 CNS
[43] = tested on: SF-539 CNS
[44] = tested on: SK-MEL-2 melanoma
[45] = tested on: SK-MEL-28 melanoma
[46] = tested on: SK-MEL-5 melanoma
[47] = tested on: SK-OV-3 ovarian
[48] = tested on: SN12C renal
[49] = tested on: SNB-19 CNS
[50] = tested on: SNB-75 CNS
[51] = tested on: SR leukemia
[52] = tested on: SW-620 colon
[53] = tested on: T-47D breast
[54] = tested on: TK-10 renal
[55] = tested on: U251 CNS
[56] = tested on: UACC-257 melanoma
[57] = tested on: UACC-62 melanoma
[58] = tested on: UO-31 renal

CN[C@@H](C)C(=O)N[C@H]1CN(C(=O)CC(C)C)CC[C@H]2CC[C@@H](C(=O)NC(c3ccccc3)c3ccccc3)N2C1=O
5.7 µM: TGI [26]
> 45.4 µM: TGI [16]
> 53.9 µM: TGI [24]
active: GI50 [5] 0.231 µM | GI50 [47] 0.156 µM
> 100 µM: TGI [1] | TGI [2] | TGI [3] | TGI [4] | TGI [5] | TGI [6] | TGI [7] | TGI [8] | TGI [9] | TGI [10] | TGI [11] | TGI [12] | TGI [13] | TGI [14] | TGI [15] | TGI [17] | TGI [18] | TGI [19] | TGI [20] | TGI [21] | TGI [22] | TGI [23] | TGI [25] | TGI [27] | TGI [28] | TGI [29] | TGI [30] | TGI [31] | TGI [33] | TGI [34] | TGI [36] | TGI [37] | TGI [38] | TGI [39] | TGI [40] | TGI [41] | TGI [42] | TGI [43] | TGI [44] | TGI [45] | TGI [46] | TGI [48] | TGI [49] | TGI [50] | TGI [51] | TGI [52] | TGI [53] | TGI [54] | TGI [55] | TGI [56] | TGI [57] | TGI [58]
8.42 µM: TGI [35]
> 78.9 µM: TGI [32]
inactive: GI50 [1] > 100 µM | GI50 [2] > 42.7 µM | GI50 [3] > 100 µM | GI50 [4] > 100 µM | GI50 [6] > 100 µM | GI50 [7] > 100 µM | GI50 [8] > 79.8 µM | GI50 [9] > 100 µM | GI50 [10] > 100 µM | GI50 [11] > 100 µM | GI50 [12] > 100 µM | GI50 [13] > 100 µM | GI50 [14] 29.1 µM | GI50 [15] > 90.9 µM | GI50 [17] > 81.7 µM | GI50 [18] 53.2 µM | GI50 [19] > 100 µM | GI50 [20] 97.9 µM | GI50 [21] > 100 µM | GI50 [22] > 100 µM | GI50 [23] > 100 µM | GI50 [24] 4.29 µM | GI50 [25] > 100 µM | GI50 [26] 0.642 µM | GI50 [27] > 100 µM | GI50 [28] > 86.7 µM | GI50 [29] > 100 µM | GI50 [30] 27.6 µM | GI50 [31] > 100 µM | GI50 [32] 17.6 µM | GI50 [33] > 100 µM | GI50 [34] > 89.7 µM | GI50 [35] 0.664 µM | GI50 [36] > 100 µM | GI50 [37] 61.6 µM | GI50 [38] > 100 µM | GI50 [39] > 74.9 µM | GI50 [40] 7.38 µM | GI50 [41] > 100 µM | GI50 [42] > 100 µM | GI50 [43] 1.78 µM | GI50 [44] 43.7 µM | GI50 [45] > 100 µM | GI50 [46] 41.9 µM | GI50 [48] > 100 µM | GI50 [49] > 100 µM | GI50 [50] 15.7 µM | GI50 [51] > 78 µM | GI50 [52] > 100 µM | GI50 [53] > 100 µM | GI50 [54] > 100 µM | GI50 [55] > 100 µM | GI50 [56] > 74.3 µM | GI50 [57] > 100 µM | GI50 [58] > 100 µM
1.04 µM: TGI [47]
